Data on seven molecules can be found in patent US5086066A, “Method of providing anxiolytic and antipsychotic treatment with substituted benzamides” (priority 1988, dated 1992).

Bounds are passed on as bounds.

In one data set the test system is mice. The experiment in a line: two compartment (dark and light) box test, anxiolytic activity. Format: in vivo. Particulars: for % time in black compartment / Black compartment rearings/5 min / Black compartment transits/5 min / Delay white → black / White compartment rearings/5 min / White compartment transits/5 min: 40 min after administration, S.E.M. <12.6%, n = 5; for minimal effective dose: Mus musculus, sc, 40 min, subcutaneous, mice, read-out: dose at and above which anxiolytic activity is manifested. Here is the method: The two compartment box test was conducted in mice to evaluate anxiolytic activity. This test is based on a natural aversion of mice to light. The apparatus used is a box containing two compartments, one of which is dark (labeled "black compartment" in the Table 1) and the other illuminated (labeled "white compartment" in Table 1). The apparatus is designed to allow the animal to choose between staying in either of the two compartments. Under normal conditions, the mice avoid light and usually remain in the dark compartment. Under the influence of an anxiolytic agent, however, exploration of the illustrated compartment predominates. The test consists of placing each mouse in the center of the illuminated compartment and observing the animal's behavior by video system for 5 minutes. The number of exploratory rearings and the number of displacements (the crossing of lines traced on the floor of each compartment constitute "passages") are then recorded for each compartment. An anxiolytic effect induced by a drug, such as diazepam, is characterized by an increase in the number of exploratory rearings and in the number of passages into the illuminated compartment. The compounds of the invention were injected subcutaneously at variable doses, each dose being administered to a group of 5 mice.

The nature of data set [1]: acute toxicity, median lethal dose (LD50) intravenously. The conditions noted are these: mouse, in vivo, iv. From the text:
The compounds of the invention were also subjected to a study of acute toxicity when injected intravenously in male mice and female mice, which enabled the median lethal doses (LD50) to be determined.

A further data set relates to rats. The experiment in a line: hyperactivity induced by injection of amphetamine into the nucleus accumbens (motor activity), antipsychotic activity. Type of data set: in vivo. On the procedure:
Tests were conducted to measure the antipsychotic activity of the compounds of the invention. In particular, the hyperactivity induced in rats by the perfusion of amphetamine into the nucleus accumbens was evaluated. This test consists in determining the effect of the compounds of the invention on hyperactivity produced in rats by the injection of amphetamine into the nucleus accumbens. Hyperactivity was induced by injecting 20 μg of amphetamine bilaterally into the nucleus accumbens. The compounds of the invention were administered subcutaneously at doses of 1 mg/kg and 10 mg/kg, 40 minutes before the injection of amphetamine. For each dose of test product, a group of 5 animals was used. A group treated only with amphetamine and a reference group which received only an inert vehicle comprised 10 animals.
Immediately after the injection of amphetamine, the rats were placed in individual cages equipped with photoelectric cells. Motor activity, characterized by the number of shifts from place to place in these cages, was determined by the number of interruptions of a light beam striking these cells. The measurements were made during the 80 minutes following the injection of amphetamine. The results, expressed as the number of shifts from place to place per 10-minute period, are collated in Table 2.

On to `CCN(CC)CCNC(=O)c1cc(Cl)c(NC2=NCCO2)cc1OC` [Compound 7, N-[2-(diethylamino)ethyl]-2-methoxy-4-[(4,5-dihydro-2-oxazolyl)amino]-5-chlorobenzamide], for which, in the data set on mice (0.1 mg/kg s.c.), the “% time in black compartment” value is 27%, the “Black compartment rearings/5 min” value is recorded as 16 rearings/5 min, the “Black compartment transits/5 min” value is on record as 16 transits/5 min and the “Delay white → black” value turned out to be 24 s. In the data set with mice (0.1 mg/kg s.c.), the “White compartment rearings/5 min” value was determined as 69 rearings/5 min and the “White compartment transits/5 min” value is recorded as 68 transits/5 min.
Regarding `CCN1CCCC1CNC(=O)c1cc(Cl)c(NC2=NC(C)CN2)cc1OC` (centres unmarked) [Compound 5, N-(1-ethyl-2-pyrrolidinylmethyl)-2-methoxy-4-[(4,5-dihydro-4-methyl-1H-imidazol-2-yl)amino]-5-chlorobenzamide], in the data set with mice (1 mg/kg s.c.), the “% time in black compartment” value was found to be 32%, the “Black compartment rearings/5 min” value is 14 rearings/5 min, the “Black compartment transits/5 min” value worked out at 19 transits/5 min and the “Delay white → black” value was found to be 23 s. Besides, in the data set with mice (1 mg/kg s.c.), the “White compartment rearings/5 min” value is 65 rearings/5 min and the “White compartment transits/5 min” value is 89 transits/5 min. Besides, in the data set with mice (10 mg/kg s.c.), the “% time in black compartment” value was 32%, the “Black compartment rearings/5 min” value was 15 rearings/5 min, the “Black compartment transits/5 min” value is reported as 16 transits/5 min and the “Delay white → black” value is 22 s. Moreover, in the data set with mice (10 mg/kg s.c.), the “White compartment rearings/5 min” value worked out at 68 rearings/5 min and the “White compartment transits/5 min” value worked out at 80 transits/5 min.
In the case of `CCN(CC)CCNC(=O)c1cc(Br)c(NC2=NC(C)CN2)cc1OC` (centres unmarked) [Compound 3, N-[2-(diethylamino)ethyl]-2-methoxy-4-[(4,5-dihydro-4-methyl-1H-imidazol-2-yl)amino]-5-bromo-benzamide], the median lethal dose (LD50) – broadly, the dose expected to kill half of the subjects tested – in data set [1] (female mice) came to 24 mg/kg. The same molecule returned a 50% lethal dose (LD50) in data set [1] (male mice) of 22 mg/kg. In the data set with mice (0.1 mg/kg s.c.), the “% time in black compartment” value was determined as 30%, the “Black compartment rearings/5 min” value is 18 rearings/5 min, the “Black compartment transits/5 min” value turned out to be 18 transits/5 min and the “Delay white → black” value was 23 s. Also, in the data set on mice (0.1 mg/kg s.c.), the “White compartment rearings/5 min” value is 97 rearings/5 min and the “White compartment transits/5 min” value was determined as 104 transits/5 min.
In data set [1] (female mice), `C=CCN1CCCC1CNC(=O)c1cc(Cl)c(NC2=NC(C)CN2)cc1OC` (centres unmarked) [Compound 2, N-(1-allyl-2-pyrrolidinylmethyl)-2-methoxy-4-[(4,5-dihydro-4-methyl-1H-imidazol-2-yl)amino]-5-chlorobenzamide] gave an LD50 of 42 mg/kg. In addition, the LD50 in data set [1] (male mice) was found to be 42 mg/kg. Moreover, in the data set on mice (0.01 mg/kg s.c.), the “% time in black compartment” value came to 49%, the “Black compartment rearings/5 min” value is reported as 27 rearings/5 min, the “Black compartment transits/5 min” value came out at 30 transits/5 min and the “Delay white → black” value amounted to 18 s. In the data set with mice (0.01 mg/kg s.c.), the “White compartment rearings/5 min” value was 43 rearings/5 min and the “White compartment transits/5 min” value amounted to 51 transits/5 min. Further, in the data set with mice (0.1 mg/kg s.c.), the “% time in black compartment” value was determined as 29%, the “Black compartment rearings/5 min” value came out at 20 rearings/5 min, the “Black compartment transits/5 min” value turned out to be 25 transits/5 min and the “Delay white → black” value worked out at 20 s. Further, in the data set with mice (0.1 mg/kg s.c.), the “White compartment rearings/5 min” value stood at 83 rearings/5 min and the “White compartment transits/5 min” value is on record as 80 transits/5 min. For the same molecule, the minimal effective dose in the data set with mice is at least 0.01 mg/kg.
With `CCN1CCCC1CNC(=O)c1cc(Br)c(NC2=NC(C)CN2)cc1OC` (centres unmarked) [Compound 4, N-(1-ethyl-2-pyrrolidinylmethyl)-2-methoxy-4-[(4,5-dihydro-4-methyl-1H-imidazol-2-yl)amino]-5-bromobenzamide], the Motor activity in the data set with rats (1 mg/kg s.c. 40 min before amphetamine 20 μg, time 10 min) is given as 34 ± 8 shifts from place to place/10 minutes; with rats (1 mg/kg s.c. 40 min before amphetamine 20 μg, time 20 min), 60 ± 13 shifts from place to place/10 minutes; with rats (1 mg/kg s.c. 40 min before amphetamine 20 μg, time 30 min), 40 ± 10 shifts from place to place/10 minutes; with rats (1 mg/kg s.c. 40 min before amphetamine 20 μg, time 40 min) it was 38 ± 13 shifts from place to place/10 minutes; in the data set on rats (1 mg/kg s.c. 40 min before amphetamine 20 μg, time 50 min) it was 37 ± 10 shifts from place to place/10 minutes; with rats (1 mg/kg s.c. 40 min before amphetamine 20 μg, time 60 min) it was 16 ± 2 shifts from place to place/10 minutes. Further, the Motor activity in the data set on rats (1 mg/kg s.c. 40 min before amphetamine 20 μg, time 70 min) is recorded as 8 ± 3 shifts from place to place/10 minutes; in the data set on rats (1 mg/kg s.c. 40 min before amphetamine 20 μg, time 80 min) it was 4 ± 2 shifts from place to place/10 minutes; in the data set with rats (10 mg/kg s.c. 40 min before amphetamine 20 μg, time 10 min), 38 ± 7 shifts from place to place/10 minutes; in the data set on rats (10 mg/kg s.c. 40 min before amphetamine 20 μg, time 20 min), 8 ± 1.4 shifts from place to place/10 minutes; in the data set on rats (10 mg/kg s.c. 40 min before amphetamine 20 μg, time 30 min), 9 ± 3 shifts from place to place/10 minutes; in the data set on rats (10 mg/kg s.c. 40 min before amphetamine 20 μg, time 40 min), 11 ± 1.6 shifts from place to place/10 minutes. For the same molecule, the Motor activity with rats (10 mg/kg s.c. 40 min before amphetamine 20 μg, time 50 min) is 5 ± 1 shifts from place to place/10 minutes; in the data set with rats (10 mg/kg s.c. 40 min before amphetamine 20 μg, time 60 min), 2 ± 1 shifts from place to place/10 minutes. For the same molecule, the LD50 in data set [1] (female mice) came out at 18 mg/kg; in data set [1] (male mice) it was 15.5 mg/kg. In addition, the “% time in black compartment” value amounted to 27% in the data set with mice (0.0001 mg/kg s.c.), 31% in the data set on mice (0.01 mg/kg s.c.) and 34% with mice (0.1 mg/kg s.c.). Also, the “Black compartment rearings/5 min” value in the data set on mice (0.0001 mg/kg s.c.) was 19 rearings/5 min; in the data set on mice (0.01 mg/kg s.c.) it was 15 rearings/5 min; in the data set on mice (0.1 mg/kg s.c.), 16 rearings/5 min. The figures for the “Black compartment transits/5 min” value in the data set on mice (0.0001 mg/kg s.c.), in the data set on mice (0.01 mg/kg s.c.) and in the data set with mice (0.1 mg/kg s.c.) were 21 transits/5 min, 20 transits/5 min and 24 transits/5 min, respectively. Moreover, the “Delay white → black” value in the data set on mice (0.0001 mg/kg s.c.) came to 23 s; in the data set with mice (0.01 mg/kg s.c.), 22 s; with mice (0.1 mg/kg s.c.) it was 38 s. Besides, the “White compartment rearings/5 min” value with mice (0.0001 mg/kg s.c.) is 73 rearings/5 min; in the data set with mice (0.01 mg/kg s.c.), 82 rearings/5 min; with mice (0.1 mg/kg s.c.) it was 78 rearings/5 min. Moreover, the “White compartment transits/5 min” value was found to be 82 transits/5 min with mice (0.0001 mg/kg s.c.), 83 transits/5 min in the data set with mice (0.01 mg/kg s.c.) and 99 transits/5 min in the data set with mice (0.1 mg/kg s.c.). Also, the minimal effective dose in the data set with mice is at least 0.0001 mg/kg.
Consider `CCN(CC)CCNC(=O)c1cc(Br)c(NC2=NCCN2)cc1OC` [Compound 6, N-[2-(diethylamino)ethyl]-2-methoxy-4-[(4,5-dihydro-1H-imidazol-2-yl)amino]-5-bromobenzamide], for which the LD50 in data set [1] (female mice) came to 118 mg/kg. Moreover, the LD50 in data set [1] (male mice) is 103 mg/kg. Moreover, in the data set on mice (0.1 mg/kg s.c.), the “% time in black compartment” value was determined as 27%, the “Black compartment rearings/5 min” value is listed as 39 rearings/5 min, the “Black compartment transits/5 min” value was 50 transits/5 min and the “Delay white → black” value was determined as 13 s. Also, in the data set with mice (0.1 mg/kg s.c.), the “White compartment rearings/5 min” value is recorded as 40 rearings/5 min and the “White compartment transits/5 min” value is 48 transits/5 min.
`CC(N)Cc1ccccc1` (centres unmarked) [Amphetamine, amphetamine, reference compound]: the Motor activity is listed as 31 ± 4 shifts from place to place/10 in the data set on rats (amphetamine alone 20 μg bilaterally into nucleus accumbens, time 10 min); 48 ± 5 shifts from place to place/10 in the data set with rats (amphetamine alone 20 μg bilaterally into nucleus accumbens, time 20 min); 66 ± 7 shifts from place to place/10 with rats (amphetamine alone 20 μg bilaterally into nucleus accumbens, time 30 min); 59 ± 7 shifts from place to place/10 in the data set with rats (amphetamine alone 20 μg bilaterally into nucleus accumbens, time 40 min); 36 ± 5 shifts from place to place/10 in the data set on rats (amphetamine alone 20 μg bilaterally into nucleus accumbens, time 50 min); 29 ± 4 shifts from place to place/10 in the data set with rats (amphetamine alone 20 μg bilaterally into nucleus accumbens, time 60 min). Moreover, the Motor activity was 19 ± 3 shifts from place to place/10 in the data set on rats (amphetamine alone 20 μg bilaterally into nucleus accumbens, time 70 min) and 8 ± 3 shifts from place to place/10 in the data set with rats (amphetamine alone 20 μg bilaterally into nucleus accumbens, time 80 min).
